Experimental findings from patent US20140107316A1, “DRUG DELIVERY CONJUGATES CONTAINING UNNATURAL AMINO ACIDS AND METHODS FOR USING” (priority 2012, published 2014) are described below.

The test system of data set [1] is H23. The experiment in a line: In vitro test against cancer cell lines, H23. Format: cell-based, Human. Conditions: H23, FR status −; evaluated from 0.1-100 nM. On the procedure:
(§1) In vitro test against the various cancer cell lines. Cells are heavily seeded in 24-well Falcon plates and allowed to form nearly confluent monolayers overnight. Thirty minutes prior to the addition of the test compound, spent medium is aspirated from all wells and replaced with fresh folate-deficient RPMI medium (FFRPMI). A subset of wells are designated to receive media containing 100 μM folic acid. The cells in the designated wells are used to determine the targeting specificity. […] Following one rinse with 1 mL of fresh FFRPMI containing 10% heat-inactivated fetal calf serum, each well receives 1 mL of medium containing increasing concentrations of test compound (4 wells per sample) in the presence or absence of 100 μM free folic acid as indicated. Treated cells are pulsed for 2 h at 37° C., rinsed 4 times with 0.5 mL of media, and then chased in 1 mL of fresh medium up to 70 h. Spent medium is aspirated from all wells and replaced with fresh medium containing 5 μCi/mL ^3H-thymidine. […] A 450 μL aliquot of each solubilized sample is transferred to a scintillation vial containing 3 mL of Ecolume scintillation cocktail and then counted in a liquid scintillation counter. Final tabulated results are expressed as the percentage of ^3H-thymidine incorporation relative to untreated controls.
(§2) Folate receptor expressing cells. […] EC1456 was evaluated from 0.1-100 nM.

Data set [2] has as its target T1, folate receptors (FRs) (Homo sapiens, UniProt P15328).
T1 construct: FR-positive KB cells were heavily seeded into 24-well cell culture plates; endogenous in cells; host or cells: KB cells (human cervical carcinoma)
The data set can be described thus: Relative affinity assay (3H-folic acid displacement on KB cells). Conditions: compared to folic acid (relative affinity=1), 10% serum/FDRPMI. It is filed as binding. On the procedure: Relative Affinity Assay. The affinity for folate receptors (FRs) relative to folate was determined according to a previously described method (Westerhof, G. R., J. H. Schornagel, et al. (1995) Mol. Pharm. 48: 459-471) with slight modification. Briefly, FR-positive KB cells were heavily seeded into 24-well cell culture plates and allowed to adhere to the plastic for 18 h. Spent incubation media was replaced in designated wells with folate-free RPMI (FFRPMI) supplemented with 100 nM ^3H-folic acid in the absence and presence of increasing concentrations of test article or folic acid. Cells were incubated for 60 min at 37° C. and then rinsed 3 times with PBS, pH 7.4. Five hundred microliters of 1% SDS in PBS, pH 7.4, were added per well. Cell lysates were then collected and added to individual vials containing 5 mL of scintillation cocktail, and then counted for radioactivity. Negative control tubes contained only the ^3H-folic acid in FFRPMI (no competitor). Positive control tubes contained a final concentration of 1 mM folic acid, and CPMs measured in these samples (representing non-specific binding of label) were subtracted from all samples.

For data set [3], the system named is IGROV1. The data set can be described thus: In vitro test against cancer cell lines, IGROV1. Format: cell-based, Human. On the procedure: as §1, §2
Data set [4] relates to A549. The experiment in a line: In vitro test against cancer cell lines, A549. Conditions: A549, FR status −; evaluated from 0.1-100 nM. It is filed as cell-based, Human. On the procedure:
as §1, §2

Data set [5] concerns MDA-MB-231 tumors. The data set can be described thus: Established subcutaneous MDA-MB-231 breast cancer xenograft. Conditions: three times per week. It is filed as in vivo, mice. The text has this: Inhibition of Tumor Growth in Mice.
Toxicity as Measured by Weight Loss.
Triple negative breast cancer (TNBC) is a subtype characterized by lack of gene expression for estrogen, progesterone and Her2/neu. TNBC is difficult to treat, and its death rate is disproportionately higher than for any other subtype of breast cancer.

Data set [6] relates to NCI/ADR-RES-Cl2. The experiment in a line: In vitro test against cancer cell lines, NCI/ADR-RES-Cl2. It is filed as cell-based, Human. On the procedure:
as §1, §2

In data set [7] the test system is KB-CR tumors. The data set can be described thus: Cisplatin-resistant KB-CR tumor model. The note with it: 2 μmol/kg i.v., three times per week (M/W/F), 2 weeks. Format: in vivo.
Description: Toxicity as Measured by Weight Loss. The percentage weight change of the mice was determined in mice (5 mice/group) on selected days post-tumor inoculation (PTI), and graphed.
The subject of data set [8] is MDA-MB-231. The experiment in a line: In vitro test against cancer cell lines, MDA-MB-231. Format: cell-based, Human. On the procedure: as §1, §2
Data set [9] in a line: Maximum tolerated dose (MTD). Format: in vivo, female Sprague-Dawley rats. The text has this: Maximum tolerated dose (MTD). […] For Example, EC1456 has a MTD of at least 0.51 μmol/kg and EC0531 has a MTD of 0.33 μmol/kg, […] when administered by i.v., BIW, 2 wks in female Sprague-Dawley rats. Histopathologic changes were not observed with doses of EC1456 at or below the MTD.

Data set [10] has as its system HepG2. The experiment in a line: In vitro test against cancer cell lines, HepG2. It is filed as cell-based, Human. The note with it: HepG2, FR status −; evaluated from 0.1-100 nM. On the procedure:
as §1, §2

“Also recorded” adds a separate entry of the source.

T1 sequence (P15328 25-234): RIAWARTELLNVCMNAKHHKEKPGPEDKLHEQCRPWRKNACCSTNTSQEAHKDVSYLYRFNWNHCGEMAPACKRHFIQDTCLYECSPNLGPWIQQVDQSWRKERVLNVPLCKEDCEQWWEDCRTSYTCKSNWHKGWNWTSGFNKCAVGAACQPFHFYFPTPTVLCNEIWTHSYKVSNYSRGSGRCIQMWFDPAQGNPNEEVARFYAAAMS

Turning to `CCCC(=O)OCN(C(=O)[C@@H](NC(=O)[C@H]1CCCCN1C)[C@@H](C)CC)[C@H](C[C@@H](OC(C)=O)c1nc(C(=O)N[C@@H](Cc2ccc(O)cc2)C[C@H](C)C(=O)NNC(=O)OCCSSC[C@@H](NC(=O)[C@H](CCC(=O)NC[C@H](O)[C@@H](O)[C@H](O)[C@H](O)CO)NC(=O)[C@@H](CCC(=O)O)NC(=O)[C@H](CCC(=O)NC[C@H](O)[C@@H](O)[C@H](O)[C@H](O)CO)NC(=O)[C@@H](CCC(=O)O)NC(=O)[C@H](CCC(=O)NC[C@H](O)[C@@H](O)[C@H](O)[C@H](O)CO)NC(=O)CC[C@@H](NC(=O)c2ccc(NCc3cnc4nc(N)[nH]c(=O)c4n3)cc2)C(=O)O)C(=O)O)cs1)C(C)C` [EC1456], the “EC1456 Activity (IC50)” value in data set [1], in data set [4] and in [10] was “Inactive” in each case. The “Relative Affinity” value in data set [2] was 0.27. Besides, the “Competable up to 100 nM” value in data set [3] (IGROV1), in data set [6] (NCI/ADR-RES-Cl2) and in data set [8] (MDA-MB-231) was “Yes” each time. In addition, the IC50 in [3] (IGROV1, FR status +, evaluated from 0.1-100 nM, read-out: EC1456 Activity (IC50)) is 0.72 nM; in data set [6] (NCI/ADR-RES-Cl2, FR status ++, evaluated from 0.1-100 nM, read-out: EC1456 Activity (IC50)) it was 1.4 nM; in [8] (MDA-MB-231, FR status +, evaluated from 0.1-100 nM, read-out: EC1456 Activity (IC50)), 0.47 nM. For the same compound, the “weight loss / gross whole animal toxicity (% weight change)” value in data set [5] (2 μmmol/kg i.v., 2 weeks) is reported as “did not cause gross whole animal toxicity; also recorded: not accompanied by significant weight loss”. The cures is 4 of 5 in [5] (2 μmmol/kg intravenous, 2 consecutive weeks) and “⅘” in data set [7]. Also, the complete responses entry in data set [7] is listed as “⅕”. Moreover, the “weight loss / host animal toxicity” value in [7] is recorded as “did not exhibit significant host animal toxicity; also recorded: did not cause any weight loss”. For the same compound, the Histopathologic changes entry in [9] (doses at or below the MTD) is listed as “not observed”. The “improvement in MTD over EC0531” value in data set [9] (i.v., BIW, 2 wks) was found to be 65%. Besides, in data set [9] (rat, in vivo, iv, BIW, 2 wks), the MTD is ≥ 0.51 µmol/kg.

A word on the IC50: it is the concentration that gives 50% inhibition. In general, MTD refers to the highest dose tested that stayed within the study's limit of toxicity.
